Measurements reported in paper PMC7251097, “Aspartate/asparagine-β-hydroxylase: a high-throughput mass spectrometric assay for discovery of small molecule inhibitors” (Scientific Reports, 2020).
Values joined by “and” are separate entries in the source; they are usually repeats but may differ in a detail not shown here. Equal entries are not always repeated. Structures can show the parent of a compound that is named as a salt. Where two headings read alike, the source gives them in different places.

Molecular target: T1, His6-AspH315–758 (human aspartate/asparagine-β-hydroxylase, AspH) (Homo sapiens, UniProt Q12797)
T1 construct: N-Terminally His6-tagged human AspH315–758 (His6-AspH315–758) was produced in E. coli BL21 (DE3) cells; made in house; host or cells: E. coli BL21 (DE3), pET-28a(+) vector
T1 sequence (Q12797 315-758): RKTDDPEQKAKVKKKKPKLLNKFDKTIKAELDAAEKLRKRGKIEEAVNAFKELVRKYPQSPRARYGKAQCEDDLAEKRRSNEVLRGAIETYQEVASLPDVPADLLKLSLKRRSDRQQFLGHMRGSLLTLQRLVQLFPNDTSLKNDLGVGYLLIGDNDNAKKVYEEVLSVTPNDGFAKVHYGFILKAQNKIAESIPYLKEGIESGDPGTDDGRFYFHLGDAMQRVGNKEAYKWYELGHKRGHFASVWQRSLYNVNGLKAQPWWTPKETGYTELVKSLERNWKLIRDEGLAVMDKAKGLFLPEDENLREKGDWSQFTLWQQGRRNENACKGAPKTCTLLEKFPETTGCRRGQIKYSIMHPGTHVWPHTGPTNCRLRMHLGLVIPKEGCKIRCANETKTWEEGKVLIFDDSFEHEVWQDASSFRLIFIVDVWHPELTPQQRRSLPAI
Experiment: SPE-MS AspH inhibition assay (LOPAC screen at fixed 20 μM and IC50 dose-response), hydroxylation of cyclic peptide hFX-CP101–119
Type: biochemical
Settings: for IC50: read-out: IC50

[1] = LOPAC compound at fixed 20 uM, plate 1, normalised to DMSO and 2,4-PDCA controls
[2] = LOPAC compound at fixed 20 uM, substrate conversion, plate 1
[3] = plate 5 (Pfitzer), test compounds at fixed 20 μM
[4] = plate 5 (Pfitzer), test compounds at fixed 20 μM, mean conversion DMSO 32.88
[5] = LOPAC Plate 4, compound at 20 uM, substrate conversion
[6] = LOPAC Plate 4, compound at 20 uM, read-out: % inhibition
[7] = LOPAC Plate 4, compound at 20 uM
[8] = LOPAC compound at 20uM, plate 3, conversion of substrate peptide
[9] = 50 nM His6-AspH315–758, 1.0 μM hFX-CP101–119, 3 μM 2OG, 2 μM Fe(II), 50 mM HEPES pH 7.5, 20 °C, mean ± SD, n = 2 (2,4-PDCA n = 10)
[10] = AspH activity, fixed compound concentration 20 μM, initial LOPAC screen, 0.5%v/v DMSO, read-out: Inhibition at 20 µM [%]
[11] = LOPAC compound at 20uM, plate 2, conversion of substrate peptide
[12] = LOPAC compound at 20uM, plate 2, normalised to DMSO and 2,4-PDCA controls

O=C(O)C(O)C(O)C(=O)O.c1cnc2cc3c(cc2n1)[C@@H]1CNC[C@H]3C1 [Varenicline tartrate]
Plate 1 (% inhibition) [1]: 66.93% | Plate 1 (% conversion) [2]: 13.40%

c1cnc2cc3c(cc2n1)[C@@H]1CNC[C@H]3C1 [Varenicline]
Plate 5 (% inhibition) [3]: 75.86% | Plate 5 (% conversion) [4]: 10.50%

COc1ccc(C(CN(C)C)C2(O)CCCCC2)cc1 (centres unmarked) [Venlafaxine hydrochloride]
Plate 2 (% conversion): 36.45% | inhibition at 20 µM (read-out: Plate 2 (% inhibition)): -1.48%

CC[C@]1(O)C[C@@H]2CN(CCc3c([nH]c4ccccc34)[C@@](C(=O)OC)(c3cc4c(cc3OC)N(C)[C@H]3[C@@](O)(C(=O)OC)[C@H](OC(C)=O)[C@]5(CC)C=CCN6CC[C@]43[C@@H]65)C2)C1.O=S(=O)(O)O [Vinblastine sulfate salt]
% conversion: 54.00% | % inhibition (20 µM): -51.36%

CC[C@]1(O)C[C@H]2CN(CCc3c([nH]c4ccccc34)[C@@](C(=O)OC)(c3cc4c(cc3OC)N(C=O)[C@H]3[C@@](O)(C(=O)OC)[C@H](OC(C)=O)[C@]5(CC)C=CCN6CC[C@]43[C@@H]65)C2)C1 [Vincristine sulfate]
% conversion [5]: 40.04% | inhibition at 20 µM [6]: -10.5%

CCOC(=O)C1=C[C@]2(CC)CCCN3CCc4c(n1c1ccccc41)[C@@H]32 [Vinpocetine]
% conversion [5]: 29.87%

C[C@@H](c1ncncc1F)[C@](O)(Cn1cncn1)c1ccc(F)cc1F [Voriconazole]
Plate 1 (% inhibition) [1]: -9.17% | Plate 1 (% conversion) [2]: 38.95% | Plate 5 (% inhibition) [3]: -1.65% | Plate 5 (% conversion) [4]: 36.88%

COc1ccccc1N1CCN(CCN(C(=O)C2CCCCC2)c2ccccn2)CC1.O=C(O)/C=C\C(=O)O [WAY-100635 maleate]
% conversion: 42.39% | % inhibition (20 µM): -17.34%

C#C[C@]1(O)CC[C@H]2[C@@H]3CCC4=Cc5nc6nc7ccccc7n6cc5C[C@]4(C)[C@H]3CC[C@@]21C [WIN 62,577]
% conversion: 37.03% | % inhibition (20 µM): -1.63%

COC[C@H]1OC(=O)c2coc3c2[C@@]1(C)C1=C(C3=O)[C@@H]2CCC(=O)[C@@]2(C)C[C@H]1OC(C)=O [Wortmannin from Penicillium funiculosum]
% conversion: 29.28%

COc1cc(/C=C(\C#N)C(=O)Nc2nnc(C(F)(F)F)s2)ccc1OCc1ccc(C(F)(F)F)cc1C(F)(F)F [XCT790]
% conversion [5]: 22.43%

Cc1cccc(C)c1N=C1NCCCS1 [Xylazine hydrochloride]
% conversion: 33.11%

Cc1cc(C(C)(C)C)cc(C)c1CC1=NCCN1 [Xylometazoline hydrochloride]
% conversion: 31.88%

CCc1ccc2c(-c3cccc(Cl)c3)nc(=O)n(CC)c2n1 [YM 976]
Plate 1 (% inhibition) [1]: -17.07% | Plate 1 (% conversion) [2]: 41.61%

COc1ccc(CCN(C)CCc2ccc(OC)c(OC)c2)cc1OC.Cl [YS-035 hydrochloride]
% inhibition [7]: -13.70% | % conversion [5]: 41.15%

COC(=O)[C@@H]1[C@H]2C[C@H]3c4[nH]c5ccccc5c4CCN3C[C@@H]2CC[C@@H]1O [Yohimbine hydrochloride]
inhibition at 20 µM: -4.13%

O=C(N[C@@H](Cc1ccccc1)C(=O)CCl)OCc1ccccc1 [Z-L-Phe chloromethyl ketone]
Plate 1 (% conversion): 35.86% | Plate 1 (% inhibition): 0.032%

CC(C)N(CCC(=O)c1ccc2ccccc2c1)Cc1ccccc1.Cl [ZM 39923 hydrochloride]
Plate 3 (% conversion) [8]: 15.79%

CCCOc1ccccc1-c1nc2nn[nH]c2c(=O)[nH]1 [Zaprinast]
% conversion [5]: 35.45% | inhibition at 20 µM [6]: 2.99%

CN(C)C/C=C(/c1ccc(Br)cc1)c1cccnc1 [Zimelidine dihydrochloride]
% conversion [5]: 37.91%

O=C1Cc2cc(CCN3CCN(c4nsc5ccccc45)CC3)c(Cl)cc2N1 [Ziprasidone hydrochloride monohydrate]
% conversion [5]: 26.15%

C[C@H](CSC(=O)c1ccccc1)C(=O)N1C[C@@H](Sc2ccccc2)C[C@H]1C(=O)[O-].C[C@H](CSC(=O)c1ccccc1)C(=O)N1C[C@@H](Sc2ccccc2)C[C@H]1C(=O)[O-].[Ca+2] [Zofenopril calcium]
% conversion: 32.50% | % inhibition (20 µM): 11.63%

O=P(O)(O)C(O)(Cn1ccnc1)P(=O)(O)O [Zoledronic acid monohydrate]
Plate 3 (% conversion): 37.14%

NS(=O)(=O)Cc1noc2ccccc12 [Zonisamide sodium]
% conversion [5]: 32.12%

CC(N)Cc1c[nH]c2ccc(O)cc12.O=C(O)/C=C\C(=O)O (stereo not drawn) [alpha-Methyl-5-hydroxytryptamine maleate]
Plate 3 (% conversion): 39.06%

NC(CO)C(=O)NNCc1ccc(O)c(O)c1O (centres unmarked) [benserazide, reference compound]
IC50 [9]: 3490 ± 760 nM | inhibition at 20 µM [10]: 95.2% | Plate 1 (% inhibition) [1]: 95.21% | Plate 1 (% conversion) [2]: 3.90%

O=C(O)/C=C/c1ccc(O)c(O)c1 [caffeic acid, reference compound]
IC50 [9]: 240 ± 80 nM | Plate 1 (% conversion) [2]: 3.16%

CCOc1nc2cccc(C(=O)O)c2n1Cc1ccc(-c2ccccc2-c2nnn[nH]2)cc1 [candesartan, reference compound]
IC50 [μM] [9]: no inhibition

CC(=O)OCC1=C(C(=O)[O-])N2C(=O)[C@@H](NC(=O)CCC[C@@H](N)C(=O)[O-])[C@H]2SC1.[Zn+2] [cephalosporin C zinc salt, reference compound]
Inhibition at 20 µM [%]: 98.1% | Plate 1 (% conversion): 2.94% | IC50 (pH 7.5): ~70 nM and 70 nM

NC/C=C\C(=O)O [cis-4-Aminocrotonic acid]
Plate 1 (% inhibition) [1]: -8.37% | Plate 1 (% conversion) [2]: 38.68%

OCCN1CCN(CC/C=C2/c3ccccc3Sc3ccc(C(F)(F)F)cc32)CC1 [cis-(Z)-Flupenthixol dihydrochloride]
Plate 2 (% conversion) [11]: 67.44% | inhibition at 20 µM (LOPAC compound at 20uM, plate 2, normalised to DMSO and 2,4-PDCA controls, read-out: Plate 2 (% inhibition)): -94%

C#CC(N)CCC(=O)O (centres unmarked) [gamma-Acetylinic GABA]
Plate 1 (% inhibition) [1]: -4.92% | Plate 1 (% conversion) [2]: 37.52%

CC(C(=O)O)c1ccc(CC2CCCC2=O)cc1 (centres unmarked) [loxoprofen]
Plate 3 (% conversion) [8]: 35.95%

NC(N)=NCc1cccc(I)c1.NC(N)=NCc1cccc(I)c1.O=S(=O)(O)O [m-Iodobenzylguanidine hemisulfate]
Plate 3 (% conversion) [8]: 36.94%

Cl.Nc1cc(Cl)c(N=C2NCCN2)c(Cl)c1 [p-Aminoclonidine hydrochloride]
Plate 1 (% inhibition) [1]: -0.11% | Plate 1 (% conversion) [2]: 35.91%

O=C1C=CC(=O)C=C1 [p-Benzoquinone, reference compound]
Inhibition at 20 µM [%]: 99.3% | Plate 1 (% conversion): 2.52% | Plate 1 (% inhibition): 99.30%

N[C@@H](Cc1ccc(F)cc1)C(=O)O [p-Fluoro-L-phenylalanine]
Plate 2 (% conversion) [11]: 36.49% | Plate 2 (% inhibition) [12]: -1.58%

Cl.Clc1cc(I)cc(Cl)c1NC1=NCCN1 [p-Iodoclonidine hydrochloride]
Plate 3 (% conversion) [8]: 40.33%

COc1ccccc1N1CCN(CCN(C(=O)c2ccc(F)cc2)c2ccccn2)CC1.Cl.Cl [p-MPPF dihydrochloride]
Plate 3 (% conversion) [8]: 43.58%

O=c1c(O)c(-c2ccc(O)c(O)c2)oc2cc(O)cc(O)c12 [quercetin, reference compound]
IC50 [9]: 240 ± 10 nM | inhibition at 20 µM [10]: 97.8% | % conversion [5]: 3.10% | inhibition at 20 µM [6]: 97.8%

CCCc1nn(C)c2c(=O)[nH]c(-c3cc(S(=O)(=O)N4CCN(C)CC4)ccc3OCC)nc12 [sildenafil, reference compound]
Plate 5 (% conversion): 6.67% | IC50 [9]: 2450 ± 360 nM | inhibition at 20 µM [10]: 97.8% | Plate 5 (% inhibition) [3]: 87.11%

(+)-Catechin Hydrate
Plate 1 (% inhibition) [1]: 90.19% | Plate 1 (% conversion) [2]: 5.58%

(+)-Cyclazocine
Plate 2 (% conversion): 35.78% | Plate 2 (% inhibition) (20 µM): 0.54%

(±)-Atenolol
Plate 1 (% inhibition) [1]: 7.50%

(±)-Butaclamol hydrochloride
Plate 1 (% inhibition) [1]: -27.23% | Plate 1 (% conversion) [2]: 45.02%

BMS-193885
% conversion [5]: 32.96%

CCT007093
% inhibition [7]: 2.20% | % conversion [5]: 35.72%

CP-316819
Plate 5 (% conversion): 34.19% | Plate 5 (% inhibition): 6.23%

CP-335963
% conversion: 27.86% | Plate 5 (% inhibition): -8.78%

KRM-III
Plate 2 (% conversion) [11]: 30.60% | Plate 2 (% inhibition) [12]: 15.99%

LY-310,762 hydrochloride
Plate 3 (% conversion) [8]: 45.55%
